In patent publication US6355799B1, “Substituted benzene compounds, process for their preparation, and herbicidal and defoliant compositions containing them” (ISK Americas Incorporated, priority 1997, dated 2002):

Tests used:
Format in all cases: in vivo
[1] = tested on: barnyardgrass (Echinochloa crus-galli, ECHCG); experiment: Pre-emerge test, greenhouse herbicide activity screening; conditions: rated 14 days after application, 0 = no damage, 100 = complete death
How it was run: (§1)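 Rating: 0–100 visual injury, 14 DAA. Application: acetone, 187 l/ha, 15–1000 g ai/ha, flat-fan track sprayer with nozzle 40–45 cm above soil or canopy. Post-emerge runs used 0.25% v/v surfactant on 2–3 leaf plants.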

[2] = tested on: velvetleaf (Abutilon theophrasti, ABUTH); experiment: as above; conditions: rated 14 days after application, 0 = no damage, 100 = complete death
How it was run: as §1

[3] = tested on: johnsongrass (Sorghum halepense, SORHA); experiment: as above; conditions: rated 14 days after application, 0 = no damage, 100 = complete death
How it was run: as §1

[4] = tested on: large crabgrass (Digitaria sanguinalis, DIGSA); experiment: as above; conditions: rated 14 days after application, 0 = no damage, 100 = complete death
How it was run: as §1

[5] = tested on: lambsquarters (Chenopodium album, CHEAL); experiment: as above; conditions: rated 14 days after application, 0 = no damage, 100 = complete death
How it was run: as §1

[6] = tested on: ivyleaf morningglory (Ipomoea hederacea, IPOHE); experiment: as above; conditions: rated 14 days after application, 0 = no damage, 100 = complete death
How it was run: as §1

[7] = tested on: sicklepod (Cassia obtusifolia, CASOB); experiment: as above; conditions: rated 14 days after application, 0 = no damage, 100 = complete death
How it was run: as §1

[8] = tested on: green foxtail (Setaria viridis, SETVI); experiment: as above; conditions: rated 14 days after application, 0 = no damage, 100 = complete death
How it was run: as §1

[9] = tested on: redroot pigweed (Amaranthus retroflexus, AMARE); experiment: as above; conditions: rated 14 days after application, 0 = no damage, 100 = complete death
How it was run: (§2)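 Plants grown in 10 cm pots of sandy loam mix received acetone-dissolved compounds through a moving flat-fan nozzle. Doses ranged from 15 to 1000 g ai/ha. Pre-emerge pots were seeded one day earlier, post-emerge pots 8–21 days earlier. Fourteen days on, each pot was graded 0–100 for damage.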

[10] = tested on: barnyardgrass (Echinochloa crus-galli, ECHCG); experiment: Post-emerge test, greenhouse herbicide activity screening; conditions: post-emerge, 14 days after application, rating scale 0-100
How it was run: (§3)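 Compounds in acetone were track-sprayed at 15-1000 g ai/ha (187 l/ha) on sandy loam pots: pre-emerge one day after seeding, post-emerge at 2-3 leaf stage with 0.25% v/v non-ionic surfactant. Phytotoxicity was rated 14 days later on a 0 (no damage) to 100 (complete death) scale.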

[11] = tested on: velvetleaf (Abutilon theophrasti, ABUTH); experiment: as above; conditions: post-emerge, 14 days after application, rating scale 0-100
How it was run: as §3

[12] = tested on: johnsongrass (Sorghum halepense, SORHA); experiment: as above; conditions: post-emerge, 14 days after application, rating scale 0-100
How it was run: as §3

[13] = tested on: large crabgrass (Digitaria sanguinalis, DIGSA); experiment: as above; conditions: post-emerge, 14 days after application, rating scale 0-100
How it was run: as §3

[14] = tested on: lambsquarters (Chenopodium album, CHEAL); experiment: as above; conditions: post-emerge, 14 days after application, rating scale 0-100
How it was run: as §3

[15] = tested on: ivyleaf morningglory (Ipomoea hederacea, IPOHE); experiment: as above; conditions: post-emerge, 14 days after application, rating scale 0-100
How it was run: as §3

[16] = tested on: sicklepod (Cassia obtusifolia, CASOB); experiment: as above; conditions: post-emerge, 14 days after application, rating scale 0-100
How it was run: as §3

[17] = tested on: green foxtail (Setaria viridis, SETVI); experiment: as above; conditions: post-emerge, 14 days after application, rating scale 0-100
How it was run: as §3

[18] = tested on: redroot pigweed (Amaranthus retroflexus, AMARE); experiment: as above; conditions: post-emerge, 14 days after application, rating scale 0-100
How it was run: as §3

[19] = tested on: field corn (Zea mays L., var. Dekalb 535, CORN); experiment: Post-emerge test, crop safety; conditions: post-emerge, 14 days after application, rating scale 0-100
How it was run: as §2

[20] = tested on: upland rice (Oryza sp., var. Tebonnet, RICE); experiment: Post-emerge test, crop safety; conditions: post-emerge, 14 days after application, rating scale 0-100
How it was run: as §2

[21] = tested on: field corn (Zea mays L., var. Dekalb 535, CORN); experiment: Pre-emerge test, crop safety; conditions: rated 14 days after application, 0 = no damage, 100 = complete death
How it was run: (§4)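 Sandy loam pots; pre-emerge: sown 1 d pre-spray, surface-watered after, then bottom-watered. Post-emerge: sown 8–21 d before, 2–3 leaf stage, + 0.25% v/v NIS, bottom-watered. Acetone, 187 l/ha track spray, 15–1000 g ai/ha. 0–100 injury score, day 14.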

[22] = tested on: upland rice (Oryza sp., var. Tebonnet, RICE); experiment: Pre-emerge test, crop safety; conditions: rated 14 days after application, 0 = no damage, 100 = complete death
How it was run: as §4

COc1c(Cl)cc(F)c(-n2c(=O)cc(C(F)(F)F)n(C)c2=O)c1NC(=O)C(=O)c1ccccc1 [2-121]
60: Pre-emerge Herbicidal Activity, phytotoxicity rating (0-100), SETVI ([8]; 250 g ai/ha) | phytotoxicity rating CHEAL ([14]; 63 g ai/ha) | phytotoxicity rating CASOB ([16]; 250 g ai/ha)
10: phytotoxicity rating SORHA ([12]; 250 g ai/ha) | phytotoxicity rating DIGSA ([13]; 250 g ai/ha) | phytotoxicity rating CASOB ([16]; 63 g ai/ha) | phytotoxicity rating CORN ([19]; 63 g ai/ha) | Pre-emerge phytotoxicity rating (0-100), crop damage, CORN ([21]; 250 g ai/ha)
80: Pre-emerge Herbicidal Activity, phytotoxicity rating (0-100), CHEAL ([5]; 63 g ai/ha) | phytotoxicity rating CHEAL ([14]; 250 g ai/ha)
100: Pre-emerge Herbicidal Activity, phytotoxicity rating (0-100), ABUTH ([2]; 63 g ai/ha) | Pre-emerge Herbicidal Activity, phytotoxicity rating (0-100), ABUTH ([2]; 250 g ai/ha) | Pre-emerge Herbicidal Activity, phytotoxicity rating (0-100), CHEAL ([5]; 250 g ai/ha) | Pre-emerge Herbicidal Activity, phytotoxicity rating (0-100), AMARE ([9]; 63 g ai/ha) | Pre-emerge Herbicidal Activity, phytotoxicity rating (0-100), AMARE ([9]; 250 g ai/ha) | phytotoxicity rating ABUTH ([11]; 250 g ai/ha) | phytotoxicity rating IPOHE ([15]; 63 g ai/ha) | phytotoxicity rating IPOHE ([15]; 250 g ai/ha) | phytotoxicity rating AMARE ([18]; 250 g ai/ha)
0: Pre-emerge Herbicidal Activity, phytotoxicity rating (0-100), ECHCG ([1]; 63 g ai/ha) | Pre-emerge Herbicidal Activity, phytotoxicity rating (0-100), ECHCG ([1]; 250 g ai/ha) | Pre-emerge Herbicidal Activity, phytotoxicity rating (0-100), SORHA ([3]; 63 g ai/ha) | Pre-emerge Herbicidal Activity, phytotoxicity rating (0-100), SORHA ([3]; 250 g ai/ha) | Pre-emerge Herbicidal Activity, phytotoxicity rating (0-100), DIGSA ([4]; 63 g ai/ha) | Pre-emerge Herbicidal Activity, phytotoxicity rating (0-100), IPOHE ([6]; 63 g ai/ha) | Pre-emerge Herbicidal Activity, phytotoxicity rating (0-100), CASOB ([7]; 63 g ai/ha) | Pre-emerge Herbicidal Activity, phytotoxicity rating (0-100), SETVI ([8]; 63 g ai/ha) | phytotoxicity rating ECHCG ([10]; 63 g ai/ha) | phytotoxicity rating ECHCG ([10]; 250 g ai/ha) | phytotoxicity rating SORHA ([12]; 63 g ai/ha) | phytotoxicity rating DIGSA ([13]; 63 g ai/ha) | phytotoxicity rating SETVI ([17]; 63 g ai/ha) | Pre-emerge phytotoxicity rating (0-100), crop damage, CORN ([21]; 63 g ai/ha) | Pre-emerge phytotoxicity rating (0-100), crop damage, RICE ([22]; 63 g ai/ha) | Pre-emerge phytotoxicity rating (0-100), crop damage, RICE ([22]; 250 g ai/ha)
70: phytotoxicity rating ABUTH ([11]; 63 g ai/ha)
20: phytotoxicity rating SETVI ([17]; 250 g ai/ha) | phytotoxicity rating CORN ([19]; 250 g ai/ha)
25: phytotoxicity rating RICE ([20]; 250 g ai/ha)
90: Pre-emerge Herbicidal Activity, phytotoxicity rating (0-100), IPOHE ([6]; 250 g ai/ha) | phytotoxicity rating AMARE ([18]; 63 g ai/ha)
30: Pre-emerge Herbicidal Activity, phytotoxicity rating (0-100), DIGSA ([4]; 250 g ai/ha)
50: Pre-emerge Herbicidal Activity, phytotoxicity rating (0-100), CASOB ([7]; 250 g ai/ha)
15: phytotoxicity rating RICE ([20]; 63 g ai/ha)
